We go through 24 molecules from patent US7781590B2, “Piperidinylalkylcarbamate derivatives, methods for their preparation and the therapeutic use thereof as fatty acid amido hydrolase enzyme inhibitors” (Sanofi-Aventis, priority 2004, dated 2010).

For data set [1], the target named is T1, enzyme FAAH (fatty acid amide hydrolase) (Mus musculus, UniProt O08914).
T1 construct: Membrane homogenates are prepared at the time of use by homogenizing the tissues in a Polytron; from tissue; host or cells: mouse brain (minus the cerebellum), membrane homogenate
T1 sequence (O08914 1-579): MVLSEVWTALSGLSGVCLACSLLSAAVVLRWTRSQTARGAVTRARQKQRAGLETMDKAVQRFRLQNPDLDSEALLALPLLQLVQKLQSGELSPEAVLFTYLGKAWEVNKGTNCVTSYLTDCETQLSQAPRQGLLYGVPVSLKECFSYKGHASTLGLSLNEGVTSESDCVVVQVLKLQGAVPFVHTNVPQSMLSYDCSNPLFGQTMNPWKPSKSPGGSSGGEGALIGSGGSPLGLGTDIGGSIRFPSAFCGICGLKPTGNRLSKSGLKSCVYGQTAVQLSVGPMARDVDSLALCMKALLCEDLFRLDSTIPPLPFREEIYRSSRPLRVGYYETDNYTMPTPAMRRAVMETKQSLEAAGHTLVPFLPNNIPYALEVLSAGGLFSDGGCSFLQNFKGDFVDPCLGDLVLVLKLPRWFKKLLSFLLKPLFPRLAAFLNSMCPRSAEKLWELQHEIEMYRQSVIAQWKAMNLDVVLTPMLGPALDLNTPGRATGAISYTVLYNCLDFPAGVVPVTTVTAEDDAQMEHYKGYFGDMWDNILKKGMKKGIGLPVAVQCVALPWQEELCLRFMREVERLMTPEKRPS
Briefly: radioenzymatic assay of FAAH inhibition (hydrolysis of anandamide [1-3H ethanolamine], mouse brain membrane homogenates). Type of data set: biochemical. Particulars: 10 μM anandamide, 15 minutes at 25° C., read-out: IC50 (concentration inhibiting by 50% the control enzymatic activity of FAAH). The protocol:
The compounds of the invention were subjected to pharmacological tests allowing determination of their inhibitory effect on the enzyme FAAH (fatty acid amide hydrolase).
Accordingly, mouse brains (minus the cerebellum) are removed and stored at −80° C. Membrane homogenates are prepared at the time of use by homogenizing the tissues in a Polytron in a 10 mM Tris-HCl buffer (pH 8.0) containing 150 mM NaCl and 1 mM EDTA. The enzymatic reaction is subsequently conducted in 70 μl of buffer containing bovine serum albumin without fatty acids (1 mg/ml). In succession the test compounds, at various concentrations, anandamide [1-^3H ethanolamine] (specific activity: 15-20 Ci/mmol) diluted to 10 μM with cold anandamide, and the membrane preparation (400 μg of frozen tissue per assay) are added. After 15 minutes at 25° C., the enzymatic reaction is terminated by adding 140 μl of chloroform/methanol (2:1). The mixture is stirred for 10 minutes and then centrifuged for 15 minutes at 3500 g. An aliquot (30 μl) of the aqueous phase containing the ethanolamine [1-^3H] is counted by liquid scintillation.

A further data set deals with male OF1 mice. Briefly: analgesia test: abdominal stretches induced by PBQ (phenylbenzoquinone). Type of data set: in vivo. Particulars: 10 mg/kg p.o. at 120 minutes. The protocol:
The in vivo activity of the compounds of the invention was evaluated in an analgesia test.
Accordingly, intraperitoneal (i.p.) administration of PBQ (phenylbenzoquinone, 2 mg/kg in a 0.9% sodium chloride solution containing 5% of ethanol) to male OF1 mice weighing 25 to 30 g causes abdominal stretches, on average 30 twists or contractions during the period from 5 to 15 minutes after injection. The test compounds are administered orally (p.o.) or intraperitoneally (i.p.) in suspension in Tween 80 at 0.5%, 60 minutes or 120 minutes before the administration of PBQ.

Molecules are shown by their SMILES. Where a name gives a salt, the structure may show the parent alone.

By melting point is commonly meant the temperature, or range, at which the solid turns liquid. `CNC(=O)COC(=O)NCCC1CCN(Cc2ccc(-c3ccccc3)cc2)CC1` [Compound 25, 2-(methylamino)-2-oxoethyl 2-[1-(biphenyl-4-ylmethyl)piperidin-4-yl]ethylcarbamate] yielded a melting point of 106 to 110 °C. The IC50 in data set [1] was 225 nM.

As to `CNC(=O)COC(=O)NCCC1CCN(Cc2ccc(-c3ccc(F)cc3)cc2F)CC1` [Compound 26, 2-(methylamino)-2-oxoethyl 2-{1-[(3,4′-difluorobiphenyl-4-yl)methyl]piperidin-4-yl}ethylcarbamate], the melting point is 143 to 145 °C. The “reduction of the number of stretches induced by PBQ” value in the data set with male OF1 mice is given as 56%.

In turn, `CNC(=O)COC(=O)NCCC1CCN(Cc2cc(-c3ccc(Cl)cc3)no2)CC1` [Compound 104, 2-(methylamino)-2-oxoethyl 2-(1-{[3-(4-chlorophenyl)isoxazol-5-yl]methyl}piperidin-4-yl)ethylcarbamate] came in with a melting point of 169 to 171 °C.

`CNC(=O)COC(=O)NCCC1CCN(Cc2cccc(OC(C)(C)C)c2)CC1` [Compound 122, 2-(methylamino)-2-oxoethyl 2-[1-(3-tert-butoxybenzyl)piperidin-4-yl]ethylcarbamate]: the melting point is 66 to 70 °C.

In the case of `CNC(=O)COC(=O)NCCC1CCN(Cc2cccc(Oc3ccc(F)cc3)c2)CC1` [Compound 103, 2-(methylamino)-2-oxoethyl 2-{1-[3-(4-fluorophenoxy)benzyl]piperidin-4-yl}ethylcarbamate], the melting point was 79 to 81 °C.

In the case of `CNC(=O)COC(=O)NCCC1CCN(CCOc2ccc(Cl)cc2)CC1` [Compound 84, 2-(methylamino)-2-oxoethyl 2-(1-{2-[(4-chlorophenyl)oxy]ethyl}piperidin-4-yl)ethylcarbamate], the melting point lay in the range of 109 to 113 °C.

`CNC(=O)COC(=O)NCCC1CCN(Cc2ccc(Cl)c(Cl)c2)CC1` [Compound 20, 2-(methylamino)-2-oxoethyl 2-{1-[(3,4-dichlorophenyl)methyl]piperidin-4-yl}ethylcarbamate] had a melting point of 101 to 105 °C.

`CNC(=O)COC(=O)NCCC1CCN(CCc2c(F)cccc2Cl)CC1` [Compound 60, 2-(methylamino)-2-oxoethyl 2-{1-[2-(2-chloro-6-fluorophenyl)ethyl]piperidin-4-yl}ethylcarbamate] came in with a melting point of 88 to 90 °C.

As to `CNC(=O)COC(=O)NC1CCN(CCOc2ccc(Cl)cc2Cl)CC1` [Compound 68], the melting point lay in the range of 115 to 119 °C.

`CNC(=O)COC(=O)NCCC1CCN(Cc2cccc(Cl)c2F)CC1` [Compound 23, 2-(methylamino)-2-oxoethyl 2-[1-(3-chloro-2-fluorobenzyl)piperidin-4-yl]ethylcarbamate]: the melting point fell in the range of 104 to 106 °C.

Turning to `CNC(=O)COC(=O)NCCC1CCN(Cc2cc(Cl)ccc2Cl)CC1` [Compound 19, 2-(methylamino)-2-oxoethyl 2-[1-(2,5-dichlorobenzyl)piperidin-4-yl]ethylcarbamate], the melting point was 125 to 127 °C.

`CNC(=O)COC(=O)NCCC1CCN(CCCc2ccc(OC)cc2)CC1` (as salt: HCl) [Compound 64, 2-(methylamino)-2-oxoethyl 2-(1-{3-[4-(methyloxy)phenyl]propyl}piperidin-4-yl)ethylcarbamate] returned a melting point of 118 to 120 °C.

As for `CNC(=O)COC(=O)NCCC1CCN(Cc2cc(F)cc(C#N)c2)CC1` [Compound 102, 2-(methylamino)-2-oxoethyl 2-[1-(3-cyano-5-fluorobenzyl)piperidin-4-yl]ethylcarbamate], the melting point was in the range of 132 to 134 °C.

Turning to `CNC(=O)COC(=O)NCCC1CCN(Cc2ccc(-c3ccc(F)cc3)cc2Cl)CC1` [Compound 27, 2-(methylamino)-2-oxoethyl 2-{1-[(3-chloro-4′-fluorobiphenyl-4-yl)methyl]piperidin-4-yl}ethylcarbamate], the melting point is 98 to 102 °C.

`CNC(=O)COC(=O)NCCC1CCN(Cc2cc(C)cc(Cl)c2)CC1` [Compound 24, 2-(methylamino)-2-oxoethyl 2-[1-(3-chloro-5-methylbenzyl)piperidin-4-yl]ethylcarbamate]: the melting point is 79 to 81 °C.

`CNC(=O)COC(=O)NCCC1CCN(Cc2ccc(F)cc2Cl)CC1` [Compound 100, 2-(methylamino)-2-oxoethyl 2-[1-(2-chloro-4-fluorobenzyl)piperidin-4-yl]ethylcarbamate]: the melting point is 108 to 110 °C.

In the case of `CNC(=O)COC(=O)NCCC1CCN(Cc2ccc(F)c(Cl)c2)CC1` [Compound 101, 2-(methylamino)-2-oxoethyl 2-[1-(3-chloro-4-fluorobenzyl)piperidin-4-yl]ethylcarbamate], the melting point lay in the range of 112 to 114 °C.

Turning to `CNC(=O)COC(=O)NCC1CCN(CCOc2ccc(Cl)cc2Cl)CC1` [Compound 77], in data set [1], the IC50 was determined as 49 nM.

As for `CNC(=O)COC(=O)NCCC1CCN(Cc2ccc(OC(F)(F)F)cc2)CC1` [Compound 16, 2-(methylamino)-2-oxoethyl 2-{1-[4-(trifluoromethoxy)benzyl]piperidin-4-yl}ethylcarbamate], the melting point is 109 to 111 °C.

Molecule `CNC(=O)COC(=O)NCCC1CCN(Cc2cccc(Cl)c2Cl)CC1` [Compound 17, 2-(methylamino)-2-oxoethyl 2-{1-[(2,3-dichlorophenyl)methyl]piperidin-4-yl}ethylcarbamate] registered a melting point of 114 to 116 °C.

As to `CNC(=O)COC(=O)NCCC1CCN(CCc2ccccc2Cl)CC1` (as salt: HCl) [Compound 57, 2-(methylamino)-2-oxoethyl 2-{1-[2-(2-chlorophenyl)ethyl]piperidin-4-yl}ethylcarbamate], the melting point is 121 to 123 °C.

The molecule `CNC(=O)COC(=O)NCCC1CCN(Cc2ccc3ccccc3c2)CC1` [Compound 30, 2-(methylamino)-2-oxoethyl 2-[1-(naphthalen-2-ylmethyl)piperidin-4-yl]ethylcarbamate] registered a melting point of 87 to 93 °C.

Molecule `CNC(=O)COC(=O)NCCC1CCN(CCOc2ccc(F)cc2)CC1` [Compound 83, 2-(methylamino)-2-oxoethyl 2-(1-{2-[(4-fluorophenyl)oxy]ethyl}piperidin-4-yl)ethylcarbamate] gave a melting point of 125 to 129 °C.

For the molecule `CNC(=O)COC(=O)NCCC1CCN(Cc2cccc(C(F)(F)F)c2)CC1` [Compound 13, 2-(methylamino)-2-oxoethyl 2-(1-{[3-(trifluoromethyl)phenyl]methyl}piperidin-4-yl)ethylcarbamate], the melting point fell in the range of 90 to 92 °C.
